{"source": "PubChem BioAssay (NCI)", "note": "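Growth conditions: 96-well plates. Treatment: test compound, 48 hours, 5 concentrations. Analysis: linear interpolation between bracketing concentrations; unreached endpoints set to highest concentration. GI50 is the concentration that inhibits growth by half. The concentration for full growth arrest is given as TGI.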", "data": [{"system": "NCI/ADR-RES ovarian", "assay": "inhibition of tumour cell growth, NCI panel, 48 h", "units": {"TGI": "µM", "GI50": "µM"}, "values": [{"smiles": "Oc1c(N2CCOCC2)cc(-c2cc(N3CCOCC3)c(O)c3ccccc23)c2ccccc12", "TGI": 15.6}, {"smiles": "C=C(C)[C@@H]1CC[C@]2(CO)CC[C@]3(C)[C@H](CC[C@@H]4[C@@]5(C)C=C(C#N)C(=O)C(C)(C)[C@@H]5CC[C@]43C)[C@@H]12", "GI50": 1.81, "TGI": 5.04}, {"smiles": "S=c1ssc(N2CCOCC2)c1Cl", "GI50": 43.9, "TGI": "> 100"}, {"smiles": "COc1ccc(/C=C/c2c(C(=O)/C=C/c3ccccc3)c(C)nc3ccccc23)cc1", "GI50": 2.51, "TGI": 7.52}]}, {"system": "LOX IMVI melanoma", "assay": "inhibition of tumour cell growth, NCI panel, 48 h", "units": {"TGI": "µM", "GI50": "µM"}, "values": [{"smiles": "Oc1c(N2CCOCC2)cc(-c2cc(N3CCOCC3)c(O)c3ccccc23)c2ccccc12", "TGI": 7.09}, {"smiles": "C=C(C)[C@@H]1CC[C@]2(CO)CC[C@]3(C)[C@H](CC[C@@H]4[C@@]5(C)C=C(C#N)C(=O)C(C)(C)[C@@H]5CC[C@]43C)[C@@H]12", "GI50": 1.18, "TGI": 2.68}, {"smiles": "S=c1ssc(N2CCOCC2)c1Cl", "GI50": 17.7, "TGI": 37.8}, {"smiles": "COc1ccc(/C=C/c2c(C(=O)/C=C/c3ccccc3)c(C)nc3ccccc23)cc1", "GI50": 1.69, "TGI": 3.08}]}, {"system": "NCI-H226 lung", "assay": "inhibition of tumour cell growth, NCI panel, 48 h", "units": {"TGI": "µM", "GI50": "µM"}, "values": [{"smiles": "Oc1c(N2CCOCC2)cc(-c2cc(N3CCOCC3)c(O)c3ccccc23)c2ccccc12", "TGI": 59.8}, {"smiles": "C=C(C)[C@@H]1CC[C@]2(CO)CC[C@]3(C)[C@H](CC[C@@H]4[C@@]5(C)C=C(C#N)C(=O)C(C)(C)[C@@H]5CC[C@]43C)[C@@H]12", "GI50": 2.39, "TGI": 5.49}, {"smiles": "S=c1ssc(N2CCOCC2)c1Cl", "GI50": "> 100", "TGI": "> 100"}, {"smiles": "COc1ccc(/C=C/c2c(C(=O)/C=C/c3ccccc3)c(C)nc3ccccc23)cc1", "GI50": 1.81, "TGI": 4.02}]}, {"system": "MCF7 breast", "assay": "inhibition of tumour cell growth, NCI panel, 48 h", "units": {"GI50": "µM", "TGI": "µM"}, "values": [{"smiles": "C=C(C)[C@@H]1CC[C@]2(CO)CC[C@]3(C)[C@H](CC[C@@H]4[C@@]5(C)C=C(C#N)C(=O)C(C)(C)[C@@H]5CC[C@]43C)[C@@H]12", "GI50": 0.34, "TGI": 7.66}, {"smiles": "COc1ccc(/C=C/c2c(C(=O)/C=C/c3ccccc3)c(C)nc3ccccc23)cc1", "GI50": 1.37, "TGI": 7.74}]}, {"system": "BT-549 breast", "assay": "inhibition of tumour cell growth, NCI panel, 48 h", "units": {"GI50": "µM", "TGI": "µM"}, "values": [{"smiles": "C=C(C)[C@@H]1CC[C@]2(CO)CC[C@]3(C)[C@H](CC[C@@H]4[C@@]5(C)C=C(C#N)C(=O)C(C)(C)[C@@H]5CC[C@]43C)[C@@H]12", "GI50": 2.13, "TGI": 6.18}, {"smiles": "COc1ccc(/C=C/c2c(C(=O)/C=C/c3ccccc3)c(C)nc3ccccc23)cc1", "GI50": 2, "TGI": 5.18}]}, {"system": "COLO 205 colon", "assay": "inhibition of tumour cell growth, NCI panel, 48 h", "units": {"GI50": "µM", "TGI": "µM"}, "values": [{"smiles": "C=C(C)[C@@H]1CC[C@]2(CO)CC[C@]3(C)[C@H](CC[C@@H]4[C@@]5(C)C=C(C#N)C(=O)C(C)(C)[C@@H]5CC[C@]43C)[C@@H]12", "GI50": 1.38, "TGI": 2.72}, {"smiles": "S=c1ssc(N2CCOCC2)c1Cl", "GI50": "> 100", "TGI": "> 100"}, {"smiles": "COc1ccc(/C=C/c2c(C(=O)/C=C/c3ccccc3)c(C)nc3ccccc23)cc1", "GI50": 1.76, "TGI": 3.5}]}, {"system": "HL-60(TB) leukemia", "assay": "inhibition of tumour cell growth, NCI panel, 48 h", "units": {"GI50": "µM", "TGI": "µM"}, "values": [{"smiles": "C=C(C)[C@@H]1CC[C@]2(CO)CC[C@]3(C)[C@H](CC[C@@H]4[C@@]5(C)C=C(C#N)C(=O)C(C)(C)[C@@H]5CC[C@]43C)[C@@H]12", "GI50": 0.471, "TGI": 5.5}, {"smiles": "S=c1ssc(N2CCOCC2)c1Cl", "GI50": 24.4, "TGI": 63.3}, {"smiles": "COc1ccc(/C=C/c2c(C(=O)/C=C/c3ccccc3)c(C)nc3ccccc23)cc1", "GI50": 2.3, "TGI": 5.79}]}, {"system": "DU-145 prostate", "assay": "inhibition of tumour cell growth, NCI panel, 48 h", "units": {"GI50": "µM", "TGI": "µM"}, "values": [{"smiles": "C=C(C)[C@@H]1CC[C@]2(CO)CC[C@]3(C)[C@H](CC[C@@H]4[C@@]5(C)C=C(C#N)C(=O)C(C)(C)[C@@H]5CC[C@]43C)[C@@H]12", "GI50": 1.97, "TGI": 5.75}]}]}
